Legend:
crenactin [1] = biological target: T1, crenactin (Pyrobaculum calidifontis, UniProt A3MWN5); test: […] degree light scattering, polymerisation; format: biochemical; conditions: 3 uM crenactin, 2 mM ATP, 4 mM MgCl2, 50 mM NH4HCO3, 50 mM NaCl, 8% PEG 8000, 25 C
T1 construct: gene cren-1; full length 1-432, N-terminal His6-SUMO tag cleaved by SENP1; E. coli C41(DE3), codon-optimised gene; double helical filament (homopolymer); model residues 5-430

crenactin [2] = biological target: T1, crenactin; test: cryoEM helical reconstruction, […] A; format: binding; conditions: filament polymerised with 2 mM ATP and 4 mM MgCl2, 50 mM NH4HCO3, 20 mM KCl, on ice; ATPase active site

T1 sequence (A3MWN5 whole entry, the tested form may be a part): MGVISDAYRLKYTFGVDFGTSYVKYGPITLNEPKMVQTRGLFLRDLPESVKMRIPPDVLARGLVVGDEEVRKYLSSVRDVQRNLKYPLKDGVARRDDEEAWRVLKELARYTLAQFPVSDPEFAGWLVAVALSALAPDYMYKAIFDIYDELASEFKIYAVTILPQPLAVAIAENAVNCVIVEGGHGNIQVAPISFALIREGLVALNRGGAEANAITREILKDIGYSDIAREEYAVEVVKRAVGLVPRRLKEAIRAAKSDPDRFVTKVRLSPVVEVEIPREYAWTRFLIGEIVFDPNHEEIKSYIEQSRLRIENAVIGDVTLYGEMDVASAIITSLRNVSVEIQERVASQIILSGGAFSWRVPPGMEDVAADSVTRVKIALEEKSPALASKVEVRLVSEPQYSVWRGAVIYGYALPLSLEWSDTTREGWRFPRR

Nc1ncnc2c1ncn2[C@@H]1O[C@H](COP(=O)(O)OP(=O)(O)OP(=O)(O)O)[C@@H](O)[C@H]1O [ATP]
90 degree light scattering, polymerisation (crenactin [1]): Addition of ATP to crenactin resulted in an increase of scattering

Nc1ncnc2c1ncn2[C@@H]1O[C@H](COP(=O)(O)OP(=O)(O)O)[C@@H](O)[C@H]1O [ADP]
cryoEM helical reconstruction, 3.8 A (crenactin [2]): The cryoEM density for the ADP nucleotide is superimposed.

— publication PMC5173319, “Crenactin forms actin-like double helical filaments regulated by arcadin-2” (eLife, 2016)
